Several values for one entry are separate records, joined by “and”; a condition that tells them apart may be missing. Equal entries are not always repeated. Inconclusive results and toxic doses are left out. No stated cut-off is given here; in the data, active means T/C of 150% or more; inactive means T/C below 125%.
System: L1210 leukemia ip in BDF1 mice, survival T/C
Assay: NCI In Vivo Anticancer Drug Screen. Data for tumor model L1210 Leukemia (intraperitoneal) in B6D2F1 (BDF1) mice
Settings: endpoint: mean survival time, higher = longer survival
Procedure, shortened: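 In this screen, tumor-bearing mice given compound are compared to those given vehicle, and their survival values are reported as a treated-to-control quotient.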

[1] = dose: 100.0 mg/kg/injection, schedule: Q01DX009 (ip), vehicle: saline
[2] = dose: 100.0 mg/kg/injection, schedule: Q04DX003 (ip), vehicle: saline
[3] = dose: 200.0 mg/kg/injection, schedule: Q01DX009 (ip), vehicle: saline
[4] = dose: 200.0 mg/kg/injection, schedule: Q04DX003 (ip), vehicle: saline
[5] = dose: 100.0 mg/kg/injection, schedule: Q01DX009 (ip), vehicle: other
[6] = dose: 200.0 mg/kg/injection, schedule: Q01DX009 (ip), vehicle: other
[7] = dose: 100.0 mg/kg/injection, schedule: Q01DX001 (ip), vehicle: saline
[8] = dose: 200.0 mg/kg/injection, schedule: Q01DX001 (ip), vehicle: saline
[9] = dose: 400.0 mg/kg/injection, schedule: Q01DX001 (ip), vehicle: saline
[10] = dose: 400.0 mg/kg/injection, schedule: Q01DX001 (ip), vehicle: carboxymethylcellulose (CMC)

Measured: T/C

CC1CC[N-]CC1.CC1CC[N-]CC1.CC1CC[N-]CC1.CC1CC[N-]CC1.O=C([O-])C(=O)[O-].O=C([O-])C(=O)[O-].[Nb+5].[O-][O-].[O-][O-].[Pt+4]
inactive: dose: 0.25 mg/kg/injection, schedule: Q01DX009 (ip), vehicle: saline 96 % of control | dose: 0.39 mg/kg/injection, schedule: Q04DX003 (ip), vehicle: saline 110 % of control | dose: 0.5 mg/kg/injection, schedule: Q01DX009 (ip), vehicle: saline 93 % of control | dose: 0.78 mg/kg/injection, schedule: Q04DX003 (ip), vehicle: saline 110 % of control | dose: 1.0 mg/kg/injection, schedule: Q01DX009 (ip), vehicle: saline 98 % of control | dose: 1.56 mg/kg/injection, schedule: Q04DX003 (ip), vehicle: saline 101 % of control | dose: 2.0 mg/kg/injection, schedule: Q01DX009 (ip), vehicle: saline 102 % of control | dose: 3.12 mg/kg/injection, schedule: Q04DX003 (ip), vehicle: saline 96 % of control and 111 % of control

COc1cc(Cl)ccc1NC(=O)Oc1ccc2c(C)cc(=O)oc2c1
inactive: dose: 100.0 mg/kg/injection, schedule: Q01DX009 (ip), vehicle: Klucel (hydroxypropylcellulose) (HPC) 100 % of control

Nc1ccn(CC(=O)c2ccco2)c(=O)n1
inactive: dose: 50.0 mg/kg/injection, schedule: Q01DX009 (ip), vehicle: saline 111 % of control | [1] 111 % of control and 90 % of control | [2] 104 % of control | [3] 105 % of control | [4] 97 % of control

CC1(C)CC(=O)CC(C)(C)N1
inactive: [2] 107 % of control | [4] 100 % of control

CC(=O)c1ccc(N)cc1
inactive: [5] 94 % of control | dose: 100.0 mg/kg/injection, schedule: Q04DX002 (ip), vehicle: other 100 % of control | [6] 102 % of control | dose: 200.0 mg/kg/injection, schedule: Q04DX002 (ip), vehicle: other 117 % of control | dose: 400.0 mg/kg/injection, schedule: Q04DX002 (ip), vehicle: other 114 % of control

O=CO
inactive: [7] 100 % of control | [8] 98 % of control | [9] 93 % of control

C/C=C/C[n+]1c(C)ccc2ccccc21
inactive: dose: 12.5 mg/kg/injection, schedule: Q01DX001 (ip), vehicle: saline 98 % of control | dose: 25.0 mg/kg/injection, schedule: Q01DX001 (ip), vehicle: saline 96 % of control | dose: 50.0 mg/kg/injection, schedule: Q01DX001 (ip), vehicle: saline 93 % of control

CCCCCCCCCCCCCCCCCC(=O)OCCCCCCCCCCCCC
inactive: dose: 100.0 mg/kg/injection, schedule: Q01DX009 (ip), vehicle: saline sonified 88 % of control | dose: 100.0 mg/kg/injection, schedule: Q04DX003 (ip), vehicle: saline with Tween-80 100 % of control | dose: 200.0 mg/kg/injection, schedule: Q01DX009 (ip), vehicle: saline sonified 95 % of control | dose: 200.0 mg/kg/injection, schedule: Q04DX003 (ip), vehicle: saline with Tween-80 92 % of control | dose: 400.0 mg/kg/injection, schedule: Q01DX009 (ip), vehicle: saline sonified 91 % of control | dose: 400.0 mg/kg/injection, schedule: Q04DX003 (ip), vehicle: saline with Tween-80 86 % of control

c1ccc2n[se]nc2c1
inactive: dose: 12.5 mg/kg/injection, schedule: Q04DX003 (ip), vehicle: saline 86 % of control | dose: 25.0 mg/kg/injection, schedule: Q04DX003 (ip), vehicle: saline 103 % of control

COC(F)(F)C(Cl)Cl
inactive: [7] 95 % of control | [8] 101 % of control | [9] 95 % of control

O=[N+]([O-])c1ccc2c(c1)CCCC2
inactive: [5] 98 % of control | dose: 100.0 mg/kg/injection, schedule: Q04DX003 (ip), vehicle: other 105 % of control | [6] 104 % of control | dose: 200.0 mg/kg/injection, schedule: Q04DX003 (ip), vehicle: other 96 % of control | dose: 400.0 mg/kg/injection, schedule: Q01DX009 (ip), vehicle: other 116 % of control | dose: 400.0 mg/kg/injection, schedule: Q04DX003 (ip), vehicle: other 92 % of control

CCOc1ccc(NC2=C(OC)C(=O)C(Nc3ccc(OCC)cc3)=C(OC)C2=O)cc1
inactive: dose: 50.0 mg/kg/injection, schedule: Q01DX001 (ip), vehicle: carboxymethylcellulose (CMC) 99 % of control | [10] 93 % of control

CCCNC(=O)c1cc(NC(=O)Nc2ccc(C3=NCCN3)cc2)cc(NC(=O)Nc2ccc(C3=NCCN3)cc2)c1
inactive: dose: 2.5 mg/kg/injection, schedule: Q01DX Z (ip), vehicle: carboxymethylcellulose (CMC) 104 % of control | dose: 5.0 mg/kg/injection, schedule: Q01DX Z (ip), vehicle: carboxymethylcellulose (CMC) 112 % of control | dose: 20.0 mg/kg/injection, schedule: Q01DX Z (ip), vehicle: carboxymethylcellulose (CMC) 124 % of control | dose: 42.0 mg/kg/injection, schedule: Q01DX Z (ip), vehicle: carboxymethylcellulose (CMC) 115 % of control

O=C(O)C(O)CBr (stereo unspecified)
inactive: dose: 12.5 mg/kg/injection, schedule: Q01DX009 (ip), vehicle: saline with Tween-80 103 % of control | dose: 25.0 mg/kg/injection, schedule: Q01DX009 (ip), vehicle: saline with Tween-80 95 % of control | dose: 50.0 mg/kg/injection, schedule: Q01DX009 (ip), vehicle: saline with Tween-80 98 % of control

COC(=O)c1ccc(O)c(Cl)c1
inactive: dose: 100.0 mg/kg/injection, schedule: Q01DX001 (ip), vehicle: carboxymethylcellulose (CMC) 96 % of control | dose: 100.0 mg/kg/injection, schedule: Q01DX009 (ip), vehicle: carboxymethylcellulose (CMC) 96 % of control | dose: 100.0 mg/kg/injection, schedule: Q04DX002 (ip), vehicle: carboxymethylcellulose (CMC) 103 % of control and 90 % of control | dose: 100.0 mg/kg/injection, schedule: Q04DX003 (ip), vehicle: carboxymethylcellulose (CMC) 97 % of control and 105 % of control | dose: 200.0 mg/kg/injection, schedule: Q01DX001 (ip), vehicle: carboxymethylcellulose (CMC) 97 % of control | dose: 200.0 mg/kg/injection, schedule: Q01DX009 (ip), vehicle: carboxymethylcellulose (CMC) 92 % of control | dose: 200.0 mg/kg/injection, schedule: Q04DX002 (ip), vehicle: carboxymethylcellulose (CMC) 105 % of control and 90 % of control | dose: 200.0 mg/kg/injection, schedule: Q04DX003 (ip), vehicle: carboxymethylcellulose (CMC) 100 % of control and 91 % of control | [10] 91 % of control | dose: 400.0 mg/kg/injection, schedule: Q01DX009 (ip), vehicle: carboxymethylcellulose (CMC) 96 % of control | dose: 400.0 mg/kg/injection, schedule: Q04DX002 (ip), vehicle: carboxymethylcellulose (CMC) 97 % of control | dose: 400.0 mg/kg/injection, schedule: Q04DX003 (ip), vehicle: carboxymethylcellulose (CMC) 102 % of control and 103 % of control

CC(=O)Nc1cccc(OC(=O)Nc2ccc([N+](=O)[O-])cc2Cl)c1
inactive: [1] 98 % of control | [2] 97 % of control | [3] 98 % of control | [4] 107 % of control | dose: 400.0 mg/kg/injection, schedule: Q01DX009 (ip), vehicle: saline 102 % of control | dose: 400.0 mg/kg/injection, schedule: Q04DX003 (ip), vehicle: saline 105 % of control
